For this assay, the system named is CEM cells HIV-1 protection, formazan growth assay. Nature of the assay: NCI AIDS Antiviral Assay. The conditions noted are these: for IC50: measured here: growth of uninfected CEM cells. The gist of the method:
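Five concentrations of each compound were applied to infected and uninfected human CEM cells. Protection from HIV-1 was judged from growth measured with a soluble formazan assay.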

Structures are written as SMILES. Values joined by “and” are separate entries in the source; they are usually repeats but may differ in a detail not shown here. Equal entries are not always repeated. Active and inactive are the calls of the source.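 The calls were made as follows: active = compounds giving half or more protection of infected cells from virus-caused growth loss, again on retest; inactive = the rest.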

As usually defined, the EC50 is the concentration that produces a half-maximal response. The term IC50 denotes the concentration needed to halve the response being measured.

Turning to `OC1CCC(O)[C@H]2[C@@H]1[C@@H]1S[C@H]2c2ccccc21` (stereo not given in full), the EC50 was greater than 200 µM and the half-inhibitory concentration (IC50) was greater than 200 µM.

`COc1ccc2[nH]c3c(cnn4cnnc34)c2c1`: the result was inactive.

Consider `COC(=O)C(Cc1ccccc1)C(=O)NC(CNC(=O)OCc1ccccc1)C(=O)OCc1ccccc1` (stereo not given), for which the EC50 was greater than 200 µM and the IC50 stood at 29.5 µM.

Take `C=C(O)c1ccccc1C#Cc1ccccc1C(=O)OC`: the EC50 is greater than 200 µM and the 50% inhibitory concentration (IC50) was greater than 100 µM.

Turning to `COc1ccc2cc(Oc3ccc(Cl)cc3)c(=O)oc2c1`, the EC50 is greater than 200 µM and the IC50 was greater than 200 µM.

With `COc1ccc(NC(=O)c2c(NC(C)=O)c(C#N)c3n2CCC3)cc1`, the EC50 was greater than 200 µM and the IC50 was greater than 200 µM.

Regarding `CC1=CCC2(C#N)CCC1C2O` (stereo not given), the EC50 was greater than 1510 µM and the concentration for half-maximal inhibition (IC50) is greater than 1510 µM.

Turning to `CC(Oc1ccc2c(-c3ccccc3)cc(=O)oc2c1)C(=O)O` (stereo not given), the outcome was inactive.

With `O=S(=O)([N-]c1nc2ccccc2nc1-[n+]1ccccc1)c1ccccc1`, the EC50 is greater than 100 µM and the 50% inhibitory concentration (IC50) was greater than 100 µM.

Regarding `c1ccc(SSc2ccc3ccccc3c2)cc1`, the EC50 was greater than 200 µM and the concentration for half-maximal inhibition (IC50) turned out to be 9.33 µM.

Consider `O=Cc1cn(CCCCCn2cc(C=O)c3ccccc32)c2ccccc12`, for which the EC50 was greater than 200 µM and the IC50 is greater than 200 µM.

`CCN(CC)CCN.O=c1cccccc1[O-].O=c1cccccc1[O-].[Co+3].[O-][Cl+3]([O-])([O-])[O-]`: the EC50 was greater than 200 µM and the IC50 is 2.24 µM.

Regarding `Cc1ccc2c(n1)C(N1CCC(C)CC1)=CC(=O)C2=O`, the result was inactive.

`COC(=O)c1cc2c(c(C(=O)OC)c1)CCC2`: the EC50 is greater than 200 µM and the concentration for half-maximal inhibition (IC50) worked out at 40.7 µM.

Regarding `C=C(C)/C=C/C(O)[C@](C)(O)[C@H]1[C@H](O)C[C@@]2(C)[C@@H]3CCc4c(cc(OC5OC(CO)C(O)C(O)C5O)c(O)c4C)C3(C)C(=O)C[C@]12C` (stereo not given in full), the EC50 was greater than 200 µM and the IC50 was greater than 200 µM.

Take `CC1=NC(=Cc2ccccc2O)C(=O)N1n1c(-c2ccccc2)nc2ccccc2c1=O`: the EC50 is greater than 200 µM and the IC50 was 12.6 µM.

For the molecule `COc1ccc2c(c1)CCN1C2CCN2C(=O)CCC21` (stereo not given), the EC50 is greater than 912 µM and the concentration for half-maximal inhibition (IC50) was greater than 912 µM.

With `CC1(C)OC2OC(C(O)COC(=O)c3ccccc3)C(Cl)C2O1` (stereo not given), the EC50 was greater than 219 µM and the IC50 is 151 µM.

With `CC(=O)OC1O[C@@H](C(C)(C)O)CC[C@@H]1[C@H]1CC[C@@]2(C)C3=C(CC[C@]12C)[C@@]1(C)C[C@@H](OC(=O)CC(C)(O)CC(=O)O)[C@H](OC(C)=O)C(C)(C)C1CC3` (stereo not given in full), the EC50 is greater than 200 µM and the IC50 worked out at 105 µM.

Turning to `CCOc1ccc(/C=N/NC(=O)C(=O)N/N=C/c2ccc(OCC)c(OCC)c2)cc1OCC`, the EC50 was greater than 200 µM and the IC50 was greater than 200 µM.

Consider `O=C1OCC(C2CCCCC2)C(Br)=C1Br` (stereo not given), for which the EC50 is greater than 200 µM and the IC50 came to 56.2 µM.

As to `CC1(C)COC1(c1ccccc1)c1cccnc1` (stereo not given), the EC50 is greater than 200 µM and the half-inhibitory concentration (IC50) worked out at 148 µM.

For `COC(=O)C1C(O)C(C)C(O)C(C)/C=C\C=C(C)C(=O)Nc2c(C)c(OC(C)=O)c3c(c2O)C(=O)C(C)=C2OCOC(=C23)C(C)=CC(C)(O)C(O)C(C)C1O` (stereo not given), the EC50 was greater than 324 µM; the IC50 was 117 µM and 162 µM.

On to `Cc1n[nH]c(=O)n1-c1cccnc1`, for which the EC50 was greater than 200 µM and the IC50 is greater than 200 µM.

Regarding `C=CCCCCCCCCC(=O)NCc1nc2ccccc2[nH]1`, the EC50 is greater than 200 µM and the IC50 worked out at 29.5 µM.

On to `CCOC(=O)C(=O)Nc1cc(Cl)ccc1Cl`, for which the EC50 was greater than 363 µM and the half-inhibitory concentration (IC50) is greater than 363 µM.

`O=C1[C@H](Cl)[C@H]2c3cc4ccccc4nc3Oc3ccccc3N12`: the EC50 was greater than 22.4 µM and the concentration for half-maximal inhibition (IC50) was greater than 22.4 µM.

As for `N#C/C=C/c1ccc(C#N)cc1`, the EC50 is greater than 64.6 µM and the IC50 was greater than 64.6 µM.

Take `CN1CCN(C(=S)N(C(=O)c2cccs2)C2CCCCC2)CC1`: the EC50 was greater than 195 µM and the IC50 was 91.2 µM.

For the molecule `c1ccc(-c2c[se]nn2)cc1`, the EC50 is greater than 174 µM and the IC50 stood at 93.3 µM.

Regarding `CC(C(=O)c1ccc(Cl)cc1)/C(=N/NC(=O)NN)C(=O)Nc1cccc(C(F)(F)F)c1` (stereo not given), the EC50 was greater than 79.4 µM and the 50% inhibitory concentration (IC50) is greater than 79.4 µM.

Regarding `Clc1ccc(C2ON2C2CCCCC2)cc1` (stereo not given), the outcome was inactive.

For `CC(=O)Oc1ccc(S(=O)(=O)c2ccc(OC(C)=O)cc2)cc1`, the EC50 was greater than 200 µM and the IC50 is 9.12 µM.

Take `COc1ccc(NC(=O)C2C(=O)N(c3ccc(OC)cc3)C(=O)/C2=N\N)cc1` (stereo not given): the EC50 was greater than 1.45 µM and the concentration for half-maximal inhibition (IC50) is greater than 1.45 µM.

`COc1ccc2c(c1)C(O)(C(F)(F)F)c1cc(C(=O)C(F)(F)F)c3ccccc3c1N2` (stereo not given): the EC50 is greater than 6.17 µM and the IC50 was greater than 6.17 µM.

With `O=C(O)c1ccc(N=NC2Sc3nc4ccccc4n3C2=O)cc1` (stereo not given), the EC50 was greater than 200 µM and the half-maximal inhibitory concentration (IC50) was greater than 200 µM.

For the molecule `Cc1nc(C2CCC3C4CCC5=CC(=O)CCC5(C)C4CCC23C)co1` (stereo not given), the outcome was inactive.

Take `CC1(C2CCC3(C)C(C2)C3Sc2ccccc2)OCCO1` (stereo not given): the outcome was inactive.

As for `OCCNCN(CNCCO)c1nc(N(CNCCO)CNCCO)nc(N(CNCCO)CNCCO)n1`, the EC50 was greater than 200 µM and the IC50 was 11.2 µM.

In the case of `Cc1nn(-c2ccccc2)c(=O)n2c1nc1ccccc12`, the EC50 is greater than 93.3 µM and the IC50 amounted to 58.9 µM.

In the case of `CCCCCC=C(c1cc(Br)cc(C(=O)OC)c1OC)c1cc(Br)cc(C(=O)OC)c1OC`, the EC50 was 42.7 µM and the IC50 is 43.7 µM.

On to `Cc1c(Cl)ccc2c1NC(=O)C2(O)CC(=O)c1ccc2ccccc2c1` (stereo not given), for which the EC50 was greater than 19.5 µM and the IC50 is greater than 19.5 µM.

Regarding `CCCC(O)(CCC)C1=NCCN1`, the EC50 was greater than 200 µM and the half-inhibitory concentration (IC50) was greater than 200 µM.

For the molecule `CCOC(=O)C(=[N+]=[N-])C(=O)CN1C(=O)c2ccccc2C1=O`, the EC50 was greater than 437 µM and the IC50 is greater than 437 µM.

With `CNC(C#N)c1ccc(OC)cc1` (stereo not given), the EC50 was greater than 200 µM and the IC50 is 105 µM.

Turning to `CCOc1ccc(N=NC2C(=O)N(C(=O)CC(=O)Nc3ccc(Cl)cc3)N=C2C)cc1` (stereo not given), the EC50 is greater than 200 µM and the IC50 was greater than 200 µM.

With `O=C(NNC(=O)c1ccccc1Cl)c1ccccc1Cl`, the EC50 is greater than 200 µM and the IC50 is greater than 200 µM.

With `NC(CS/C=C\C(=O)O)C(=O)O` (stereo not given), the EC50 is greater than 27.5 µM and the 50% inhibitory concentration (IC50) is greater than 27.5 µM.

`CCNC(=O)OCCCCC=C(c1cc(Cl)c(OC)c(C(=O)OC)c1)c1cc(Cl)c(OC)c(C(=O)OC)c1`: the EC50 is greater than 200 µM and the IC50 is 14.5 µM.

`COc1ccc(NC(=O)CC(=O)N/N=C/c2ccc(N(CCC#N)S(=O)(=O)c3ccccc3)cc2)cc1`: the EC50 is greater than 251 µM and the half-inhibitory concentration (IC50) is greater than 251 µM.

As for `CC(=O)c1ccc(NC(=O)CSc2nc(C)nc3c2sc(=S)n3-c2ccccc2)cc1`, the EC50 was greater than 200 µM and the IC50 was greater than 200 µM.

For the molecule `Cc1nn2cnnc2s1`, the EC50 is greater than 501 µM and the IC50 was greater than 501 µM.

Take `O=C(Nc1ccc([N+](=O)[O-])cc1)N(c1ccccc1)c1cc(N2CCOCC2)ccn1`: the EC50 is greater than 200 µM and the IC50 came out at 39.8 µM.

Values taken from PubChem BioAssay AID179 (DTP/NCI, 2004).
